Measured values: PubChem BioAssay AID296 (DTP/NCI, 2004)
Where “and” joins values, the source holds several entries; their conditions need not be identical. Identical values can stand only once. Results filed as inconclusive are left out.

Tested on: MX-1 breast xenograft, nude mice, tumor weight T/C
Assay: NCI In Vivo Anticancer Drug Screen. Data for tumor model Human Mammary Carcinoma MX-1 Xenograft (intrarenal inoculation) in NU/NU Swiss (nude) mice
Details: endpoint: mean tumor weight change, higher = larger tumour
How it was run: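 Compound dosed to mice with transplantable tumor; vehicle group as control. Endpoint survival or tumour size, reported as T/C.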

[1] = dose: 50.0 mg/kg/injection, schedule: Q01DX010 (sc), vehicle: Klucel (hydroxypropylcellulose) (HPC)
[2] = dose: 100.0 mg/kg/injection, schedule: Q01DX010 (sc), vehicle: Klucel (hydroxypropylcellulose) (HPC)
[3] = dose: 200.0 mg/kg/injection, schedule: Q01DX010 (sc), vehicle: Klucel (hydroxypropylcellulose) (HPC)
[4] = dose: 300.0 mg/kg/injection, schedule: Q04DX003 (sc), vehicle: water
[5] = dose: 600.0 mg/kg/injection, schedule: Q04DX003 (sc), vehicle: water
[6] = dose: 300.0 mg/kg/injection, schedule: Q04DX003 (sc), vehicle: saline
[7] = dose: 600.0 mg/kg/injection, schedule: Q04DX003 (sc), vehicle: saline
[8] = dose: 300.0 mg/kg/injection, schedule: Q04DX003 (sc), vehicle: saline with Tween-80
[9] = dose: 150.0 mg/kg/injection, schedule: Q04DX003 (sc), vehicle: Klucel (hydroxypropylcellulose) (HPC)
[10] = dose: 300.0 mg/kg/injection, schedule: Q04DX003 (sc), vehicle: Klucel (hydroxypropylcellulose) (HPC)
[11] = dose: 600.0 mg/kg/injection, schedule: Q04DX003 (sc), vehicle: Klucel (hydroxypropylcellulose) (HPC)

In the case of `COc1cc2c(c(OC)c1OC)-c1c(cc3c(c1OC)OCO3)CC(C)C(C)(O)C2OC(=O)c1ccccc1` (configuration not stated), the T/C (dose: 300.0 mg/kg/injection, schedule: Q04DX003 (sc), vehicle: saline + alcohol) is reported as 68 % of control, the T/C (dose: 600.0 mg/kg/injection, schedule: Q04DX003 (sc), vehicle: saline + alcohol) is reported as 82 % of control and the T/C (dose: 1200.0 mg/kg/injection, schedule: Q04DX003 (sc), vehicle: saline + alcohol) is reported as 79 % of control. For the same molecule, the T/C (dose: 2400.0 mg/kg/injection, schedule: Q04DX003 (sc), vehicle: saline + alcohol) was 88 % of control.

With `Cc1cc2nc3[nH]c4ccccc4c3nc2cc1C` the T/C (dose: 100.0 mg/kg/injection, schedule: Q01DX010 (sc), vehicle: saline) was 92 % of control, the T/C (dose: 200.0 mg/kg/injection, schedule: Q01DX010 (sc), vehicle: saline) was 103 % of control and the T/C (dose: 400.0 mg/kg/injection, schedule: Q01DX010 (sc), vehicle: saline) was 63 % of control. For the same molecule, the T/C (dose: 800.0 mg/kg/injection, schedule: Q01DX010 (sc), vehicle: saline) was 69 % of control.

`NC(=O)/C=C/c1c[nH]c2nccnc12` was tested, and the T/C (dose: 25.0 mg/kg/injection, schedule: Q04DX003 (sc), vehicle: water) was 98 % of control and the T/C (dose: 50.0 mg/kg/injection, schedule: Q04DX003 (sc), vehicle: water) was 46 % of control.

For `C/C(=C\c1ccccc1)[N+](=O)[O-]`, the T/C (dose: 25.0 mg/kg/injection, schedule: Q01DX010 (sc), vehicle: Klucel (hydroxypropylcellulose) (HPC)) was 38 % of control, the T/C [1] was 88 % of control and the T/C [2] was 45 % of control and 53 % of control. For the same molecule, the T/C [3] was 55 % of control and 59 % of control.

In the case of `COc1ccc(OC)c(Cc2cnc3nc(N)nc(N)c3c2C)c1`, the T/C (dose: 75.0 mg/kg/injection, schedule: Q04DX003 (sc), vehicle: water) is reported as 73 % of control, the T/C (dose: 150.0 mg/kg/injection, schedule: Q04DX003 (sc), vehicle: water) is reported as 56 % of control and the T/C [4] is reported as 53 % of control. The T/C [5] was 62 % of control.

With `C(COCCOCC1CO1)OCCOCC1CO1` (configuration not stated) the T/C [6] was 64 % of control and the T/C [7] was 29 % of control.

`CCC1=C[C@H]2CN(CCc3c([nH]c4ccccc34)[C@@](C(=O)OC)(c3cc4c(cc3OC)N(C)[C@H]3[C@@](O)(C(=O)OC)[C@H](OC(C)=O)[C@]5(CC)C=CCN6CC[C@]43[C@@H]65)C2)C1` was tested, and the T/C (dose: 3.0 mg/kg/injection, schedule: Q04DX003 (sc), vehicle: water) was 108 % of control, the T/C (dose: 6.0 mg/kg/injection, schedule: Q04DX003 (sc), vehicle: water) was 84 % of control and the T/C (dose: 12.0 mg/kg/injection, schedule: Q04DX003 (sc), vehicle: water) was 56 % of control.

In the case of `CC(=O)Nc1ccc(S(=O)(=O)CO)cc1`, the T/C [8] is reported as 121 % of control and the T/C (dose: 600.0 mg/kg/injection, schedule: Q04DX003 (sc), vehicle: saline with Tween-80) is reported as 85 % of control.

`C=CCc1cn(C2CC(O)C(CO)O2)c(=O)[nH]c1=O` (configuration not stated) was tested, and the T/C [6] was 121 % of control, the T/C [7] was 114 % of control and the T/C (dose: 1200.0 mg/kg/injection, schedule: Q04DX003 (sc), vehicle: saline) was 93 % of control. For the same molecule, the T/C (dose: 2400.0 mg/kg/injection, schedule: Q04DX003 (sc), vehicle: saline) was 97 % of control.

For `CCc1ccc(C2=C(O)C(=O)C(c3ccccc3)=C(O)C2=O)cc1`, the T/C [9] was 100 % of control, the T/C [10] was 100 % of control and the T/C [11] was 77 % of control.

With `CC(C)[C@](O)(C(=O)OCC1=CCN2CC[C@@H](O)[C@@H]12)[C@H](C)O` the T/C [4] was 56 % of control, the T/C [5] was 65 % of control and the T/C (dose: 1200.0 mg/kg/injection, schedule: Q04DX003 (sc), vehicle: water) was 53 % of control. The T/C (dose: 2400.0 mg/kg/injection, schedule: Q04DX003 (sc), vehicle: water) was 51 % of control.

In the case of `Nc1nc2ccc(NCc3ccc(C(=O)NC(CCC(=O)O)C(=O)O)cc3)cc2c(=O)[nH]1` (configuration not stated), the T/C (dose: 100.0 mg/kg/injection, schedule: Q04DX003 (sc), vehicle: saline with Tween-80) is reported as 93 % of control, the T/C (dose: 200.0 mg/kg/injection, schedule: Q04DX003 (sc), vehicle: saline with Tween-80) is reported as 93 % of control and the T/C (dose: 400.0 mg/kg/injection, schedule: Q04DX003 (sc), vehicle: saline with Tween-80) is reported as 90 % of control. The T/C (dose: 800.0 mg/kg/injection, schedule: Q04DX003 (sc), vehicle: saline with Tween-80) was 23 % of control.

`CC(=O)C(=O)O.CC(=O)C(=O)O.[NH-]C1CCCCC1[NH-].[Pt+2]` (configuration not stated) was tested, and the T/C (dose: 6.25 mg/kg/injection, schedule: Q04DX003 (ip), vehicle: other) was 46 % of control, the T/C (dose: 12.5 mg/kg/injection, schedule: Q04DX003 (ip), vehicle: other) was 74 % of control and the T/C (dose: 25.0 mg/kg/injection, schedule: Q04DX003 (ip), vehicle: other) was 45 % of control. The T/C (dose: 50.0 mg/kg/injection, schedule: Q04DX003 (ip), vehicle: other) was 12 % of control and the T/C (dose: 100.0 mg/kg/injection, schedule: Q04DX003 (ip), vehicle: other) was 9 % of control.

For `ClCC[Se](Cl)(Cl)c1ccccc1`, the T/C (dose: 12.5 mg/kg/injection, schedule: Q04DX003 (sc), vehicle: saline) was 89 % of control, the T/C (dose: 25.0 mg/kg/injection, schedule: Q04DX003 (sc), vehicle: saline) was 109 % of control and the T/C (dose: 50.0 mg/kg/injection, schedule: Q04DX003 (sc), vehicle: saline) was 80 % of control. For the same molecule, the T/C (dose: 100.0 mg/kg/injection, schedule: Q04DX003 (sc), vehicle: saline) was 59 % of control.

In the case of `O=Cc1ccc(C=O)c(Cl)c1`, the T/C [11] is reported as 77 % of control and the T/C (dose: 2400.0 mg/kg/injection, schedule: Q04DX003 (sc), vehicle: Klucel (hydroxypropylcellulose) (HPC)) is reported as 120 % of control.

In the case of `CNC(=O)OCc1c(COC(=O)NC)c(C)n(-c2ccc(OC)cc2)c1C`, the T/C [1] is reported as 41 % of control, the T/C (dose: 50.0 mg/kg/injection, schedule: Q04DX003 (sc), vehicle: Klucel (hydroxypropylcellulose) (HPC)) is reported as 110 % of control and the T/C [2] is reported as 9 % of control. For the same molecule, the T/C (dose: 100.0 mg/kg/injection, schedule: Q04DX003 (sc), vehicle: Klucel (hydroxypropylcellulose) (HPC)) was 46 % of control, the T/C [3] was -52 % of control and the T/C (dose: 400.0 mg/kg/injection, schedule: Q01DX010 (sc), vehicle: Klucel (hydroxypropylcellulose) (HPC)) was -61 % of control. The T/C (dose: 800.0 mg/kg/injection, schedule: Q04DX003 (sc), vehicle: Klucel (hydroxypropylcellulose) (HPC)) was -100 % of control and the T/C (dose: 1600.0 mg/kg/injection, schedule: Q04DX003 (sc), vehicle: Klucel (hydroxypropylcellulose) (HPC)) was -100 % of control.

With `C[C@]12CCC(=O)C=C1CC[C@@H]1[C@@H]2[C@@H](O)C[C@@]2(C)[C@H]1CC[C@]2(O)C(=O)CO` the T/C (dose: 75.0 mg/kg/injection, schedule: Q04DX003 (sc), vehicle: Klucel (hydroxypropylcellulose) (HPC)) was 117 % of control, the T/C [9] was 45 % of control and the T/C [10] was 33 % of control. For the same molecule, the T/C [11] was 33 % of control.

For `CCC1CC2CN(CCc3c([nH]c4ccccc34)C(C(=O)OC)(c3cc4c(cc3OC)N(C)C3C(O)(C(=O)OC)C(OC(C)=O)C5(CC)C=CCN6CCC43C65)C2)C1` (configuration not stated), the T/C (dose: 4.0 mg/kg/injection, schedule: Q04DX003 (sc), vehicle: saline) was 36 % of control, the T/C (dose: 8.0 mg/kg/injection, schedule: Q04DX003 (sc), vehicle: saline) was 4 % of control and the T/C (dose: 8.0 mg/kg/injection, schedule: Q04DX003 (sc), vehicle: water) was 25 % of control. The T/C (dose: 16.0 mg/kg/injection, schedule: Q04DX003 (sc), vehicle: saline) was -86 % of control.

For `FC(F)(F)c1nc2nc(Cl)c(Cl)nc2[nH]1`, the T/C (dose: 75.0 mg/kg/injection, schedule: Q04DX003 (sc), vehicle: saline with Tween-80) was 92 % of control, the T/C (dose: 150.0 mg/kg/injection, schedule: Q04DX003 (sc), vehicle: saline with Tween-80) was 97 % of control and the T/C [8] was 90 % of control.

For `Cc1c(N)nc(C(CC(N)=O)NCC(N)C(N)=O)nc1C(=O)NC(C(=O)NC(C)C(O)C(C)C(=O)NC(C(=O)NCCc1nc(-c2nc(C(=O)NCCCNCCCc3ccccn3)cs2)cs1)C(C)O)C(OC1OC(CO)C(O)C(O)C1OC1OC(CO)C(O)C(OC(N)=O)C1O)c1cnc[nH]1` (configuration not stated), the T/C (dose: 9.0 mg/kg/injection, schedule: Q04DX003 (sc), vehicle: water) was 77 % of control, the T/C (dose: 18.0 mg/kg/injection, schedule: Q04DX003 (sc), vehicle: water) was 66 % of control and the T/C (dose: 36.0 mg/kg/injection, schedule: Q04DX003 (sc), vehicle: water) was 75 % of control. For the same molecule, the T/C (dose: 72.0 mg/kg/injection, schedule: Q04DX003 (sc), vehicle: water) was 44 % of control.

With `CCOC(=O)Nc1cc2c(c(N)n1)N=C(c1ccccc1)CN2` the T/C (dose: 6.25 mg/kg/injection, schedule: Q04DX003 (sc), vehicle: saline with Tween-80) was 80 % of control, the T/C (dose: 12.5 mg/kg/injection, schedule: Q04DX003 (sc), vehicle: saline with Tween-80) was 83 % of control and the T/C (dose: 25.0 mg/kg/injection, schedule: Q04DX003 (sc), vehicle: saline with Tween-80) was 68 % of control.
